This experiment has as its system SK-MEL. As to the kind of experiment: Cytotoxicity against human SK-MEL cells after 48 hrs by neutral red staining. In kind it is functional, cell-based.

Values after ≈ are worked out from the molar mass of the structure shown.

Usually IC50 stands for the concentration that gives 50% inhibition. A lower IC50 goes with inhibition by little substance. Molecule `C[C@H]1CC[C@@]2(OC1)O[C@H]1C[C@H]3[C@@H]4CC[C@@H]5C[C@@H](O[C@@H]6O[C@H](CO)[C@H](O[C@@H]7O[C@H](CO)[C@@H](O)[C@H](O)[C@H]7O)[C@H](O)[C@H]6O[C@@H]6O[C@@H](C)[C@H](O)[C@@H](O)[C@H]6O)CC[C@]5(C)[C@H]4CC[C@]3(C)[C@H]1[C@@H]2C` gave a half-inhibitory concentration (IC50) of 6.7 µg/mL (≈ 7.55 µM).

Values taken from ChEMBL document CHEMBL1154992, “New steroidal glycosides from the fruits of Tribulus terrestris” (J Nat Prod, 2000).
